This assay concerns the target T1, human HSL (Homo sapiens, UniProt Q05469).
T1 construct: generate a full length human HSL ORF with a 3′-His6 tag; made in house; host or cells: High 5 insect cells (baculovirus, pFast-BAC)
T1 sequence (Q05469 1-1076): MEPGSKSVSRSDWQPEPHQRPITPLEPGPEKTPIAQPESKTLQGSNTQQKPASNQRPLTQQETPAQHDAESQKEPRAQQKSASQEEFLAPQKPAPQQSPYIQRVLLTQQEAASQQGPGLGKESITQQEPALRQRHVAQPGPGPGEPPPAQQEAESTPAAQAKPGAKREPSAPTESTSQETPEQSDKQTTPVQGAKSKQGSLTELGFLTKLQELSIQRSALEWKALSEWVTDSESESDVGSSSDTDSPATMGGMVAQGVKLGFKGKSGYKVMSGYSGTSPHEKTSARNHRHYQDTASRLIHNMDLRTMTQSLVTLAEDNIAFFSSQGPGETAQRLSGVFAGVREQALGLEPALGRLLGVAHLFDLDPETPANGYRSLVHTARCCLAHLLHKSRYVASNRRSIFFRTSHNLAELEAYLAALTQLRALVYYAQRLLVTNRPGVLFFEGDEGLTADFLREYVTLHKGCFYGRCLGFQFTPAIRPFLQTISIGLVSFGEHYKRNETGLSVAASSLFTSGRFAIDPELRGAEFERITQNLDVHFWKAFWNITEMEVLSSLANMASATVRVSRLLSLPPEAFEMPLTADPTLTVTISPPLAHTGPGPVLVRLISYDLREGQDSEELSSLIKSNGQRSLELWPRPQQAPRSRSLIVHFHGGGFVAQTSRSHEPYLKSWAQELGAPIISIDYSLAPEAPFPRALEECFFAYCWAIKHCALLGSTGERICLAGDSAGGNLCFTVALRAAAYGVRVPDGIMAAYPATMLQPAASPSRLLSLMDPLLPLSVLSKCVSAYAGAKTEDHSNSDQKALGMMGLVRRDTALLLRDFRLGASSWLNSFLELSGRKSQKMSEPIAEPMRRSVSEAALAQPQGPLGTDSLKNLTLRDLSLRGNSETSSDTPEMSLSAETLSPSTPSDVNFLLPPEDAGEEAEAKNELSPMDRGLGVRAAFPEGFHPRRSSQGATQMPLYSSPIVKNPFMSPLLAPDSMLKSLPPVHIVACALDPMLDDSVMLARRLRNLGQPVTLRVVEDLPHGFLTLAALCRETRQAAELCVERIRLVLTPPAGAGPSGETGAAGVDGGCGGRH
The experiment in a line: Human Hormone-Sensitive Lipase (HSL) enzyme inhibition assay (colorimetric, DMPT substrate). It counts as biochemical. The note with it: human full length HSL-His6, 2,3-dimercapto-1-propanol tributyrate substrate, 37° C. 20 minutes, absorbance at 405 nm; read-out: HSL hum IC50. Put shortly:
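Full-length human HSL with C-terminal His6, expressed in baculovirus-infected High 5 cells and Ni-NTA purified, was added (15 ug/ml stock) to 1.5 mM DMPT in 100 mM MOPS pH 7.2, 0.2 mg/ml fatty acid-free BSA containing compound. After 20 min at 37 °C, DTNB with SDS/Triton X-100 was added; A405 read after 15 min at RT.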

As to `CCC[C@]1(O)CC[C@]2(CCN(c3ccc(OS(=O)(=O)C4CC4)cc3)C2=O)CC1` [Example 182, 4-((5α,8α)-8-hydroxy-1-oxo-8-propyl-2-aza-spiro[4.5]decan-2-yl)phenyl cyclopropanesulfonate], the half-maximal inhibitory concentration (IC50) (commonly the point on the concentration scale where inhibition reaches its midpoint) is 0.03 µM.
To `CC[C@]1(O)CC[C@]2(CCN(c3ccc(OS(=O)(=O)C4CC4)cc3)C2=O)CC1` [Example 183, 4-((5α,8α)-8-ethyl-8-hydroxy-1-oxo-2-aza-spiro[4.5]decan-2-yl)phenyl cyclopropanesulfonate] belongs 0.07 µM; to `CCC[C@]1(O)CC[C@]2(CCN(c3ccc(OC(C)C)cc3)C2=O)CC1` [Example 184, (5α,8α)-8-Hydroxy-2-(4-isopropoxyphenyl)-8-propyl-2-aza-spiro[4.5]decan-1-one], 0.02 µM.
To `CCC[C@]1(O)CC[C@@]2(CCN(c3ccc(OS(C)(=O)=O)cc3)C2=O)CC1` [Example 185, 4-((5α,8β))-8-hydroxy-1-oxo-8-propyl-2-aza-spiro[4.5]decan-2-yl)phenyl methanesulfonate] belongs 0.05 µM; to `CC[C@]1(O)CC[C@]2(CCN(c3ccc(OC(C)C)cc3)C2=O)CC1` [Example 186, (5α,8α)-8-Ethyl-8-hydroxy-2-(4-isopropoxy-phenyl)-2-aza-spiro[4.5]decan-1-one], 0.02 µM.
For `CCC[C@]1(O)CC[C@]2(CCN(c3ccc(S(=O)(=O)CC)cc3)C2=O)CC1` [Example 187, (5α,8α)-2-(4-Ethanesulfonyl-phenyl)-8-hydroxy-8-propyl-2-aza-spiro[4.5]decan-1-one], the IC50 was 0.65 µM.
The value for `CCC[C@]1(O)CC[C@]2(CCN(Cc3ccc(OC(F)(F)F)cc3)C2=O)CC1` [Example 188, (5α,8α)-8-hydroxy-8-propyl-2-(4-(trifluoromethoxy)benzyl)-2-aza-spiro[4.5]decan-1-one] was 0.08 µM; that for `O=C1N(c2ccc(OS(=O)(=O)C3CC3)cc2)CC[C@]12CC[C@@](O)(C(F)(F)F)CC2` [Example 189, 4-((5α,8α)-8-hydroxy-1-oxo-8-(trifluoromethyl)-2-aza-spiro[4.5]decan-2-yl)phenyl cyclopropanesulfonate] was 0.1 µM; that for `CCCC[C@]1(O)CC[C@]2(CCN(c3ccc([C@@H](O)C(F)(F)F)cc3)C2=O)CC1` [Example 190, (5α,8α)-8-butyl-8-hydroxy-2-(4-((R)-2,2,2-trifluoro-1-hydroxyethyl)phenyl)-2-aza-spiro[4.5]decan-1-one] was 0.01 µM.
In the case of `CC(C)[C@]1(O)CC[C@]2(CCN(c3ccc(C(O)C(C)(F)F)cc3)C2=O)CC1` (stereo partly drawn) [Example 191, (5α,8α)-2-(4-(2,2-difluoro-1-hydroxypropyl)phenyl)-8-hydroxy-8-isopropyl-2-aza-spiro[4.5]decan-1-one], the IC50 was 0.05 µM.
To `CCC[C@]1(O)CC[C@]2(CCN(c3ccc(C(O)C(C)(F)F)cc3)C2=O)CC1` (stereo partly drawn) [Example 192, (5α,8α)-2-(4-(2,2-difluoro-1-hydroxypropyl)phenyl)-8-hydroxy-8-propyl-2-aza-spiro[4.5]decan-1-one] belongs 0.05 µM.
To `CC(F)(F)C(O)c1ccc(N2CC[C@]3(CC[C@@](O)(CCC(F)(F)F)CC3)C2=O)cc1` (stereo partly drawn) [Example 193, (5α,8α)-2-(4-(2,2-difluoro-1-hydroxypropyl)phenyl)-8-hydroxy-8-(3,3,3-trifluoropropyl)-2-aza-spiro[4.5]decan-1-one] belongs 0.03 µM.
To `O=C1N(c2ccc([C@@H](O)C(F)(F)F)cc2)CC[C@]12CC[C@@](O)(CCC(F)(F)F)CC2` [Example 194, (5α,8α)-8-hydroxy-2-(4-((R)-2,2,2-trifluoro-1-hydroxyethyl)phenyl)-8-(3,3,3-trifluoropropyl)-2-aza-spiro[4.5]decan-1-one] belongs 0.02 µM; to `CCC[C@]1(O)CC[C@]2(CCN(c3ccc(C(O)C(F)F)cc3)C2=O)CC1` (stereo partly drawn) [Example 195, (5α,8α)-2-(4-(2,2-difluoro-1-hydroxyethyl)phenyl)-8-hydroxy-8-propyl-2-aza-spiro[4.5]decan-1-one], 0.11 µM.
As to `CC(C)Oc1ccc(N2CC[C@]3(CC[C@@](O)(C(C)C)CC3)C2=O)cc1` [Example 196, (5α,8α)-8-hydroxy-2-(4-isopropoxyphenyl)-8-isopropyl-2-aza-spiro[4.5]decan-1-one], the IC50 came to 0.01 µM.
The value for `CC(C)Oc1ccc(N2CC[C@]3(CC[C@@](O)(C4CC4)CC3)C2=O)cc1` [Example 197, (5α,8α)-8-cyclopropyl-8-hydroxy-2-(4-isopropoxyphenyl)-2-aza-spiro[4.5]decan-1-one] was 0.02 µM; that for `CC(C)Oc1ccc(N2CC[C@]3(CC[C@@](O)(C4CCCC4)CC3)C2=O)cc1` [Example 198, (5α,8α)-8-cyclopentyl-8-hydroxy-2-(4-isopropoxyphenyl)-2-aza-spiro[4.5]decan-1-one] was 0.01 µM; that for `CC(C)C[C@]1(O)CC[C@]2(CCN(c3ccc(OC(C)C)cc3)C2=O)CC1` [Example 199, (5α,8α)-8-hydroxy-8-isobutyl-2-(4-isopropoxyphenyl)-2-aza-spiro[4.5]decan-1-one] was 0.01 µM.
To `O=C1N(c2ccc([C@@H](O)C(F)(F)F)cc2)CC[C@]12CC[C@@](O)(C1CCC1)CC2` [Example 200, (5α,8α)-8-cyclobutyl-8-hydroxy-2-(4-((R)-2,2,2-trifluoro-1-hydroxyethyl)phenyl)-2-aza-spiro[4.5]decan-1-one] belongs 0.02 µM; to `O=C1N(c2ccc([C@@H](O)C(F)(F)F)cc2)CC[C@]12CC[C@@](O)(C1CC1)CC2` [Example 201, (5α,8α)-8-cyclopropyl-8-hydroxy-2-(4-((R)-2,2,2-trifluoro-1-hydroxyethyl)phenyl)-2-aza-spiro[4.5]decan-1-one], 0.05 µM.
The value for `O=C1N(c2ccc([C@@H](O)C(F)(F)F)cc2)CC[C@]12CC[C@@](O)(C1CCCC1)CC2` [Example 202, (5α,8α)-8-cyclopentyl-8-hydroxy-2-(4-((R)-2,2,2-trifluoro-1-hydroxyethyl)phenyl)-2-aza-spiro[4.5]decan-1-one] was 0.01 µM.
On to `CC(C)c1ccc(N2CC[C@]3(CC[C@@](O)(C(C)C)CC3)C2=O)cc1` [Example 203, (5α,8α)-8-hydroxy-8-isopropyl-2-(4-isopropylphenyl)-2-aza-spiro[4.5]decan-1-one], for which the IC50 is 0.01 µM.
The value for `CCC[C@]1(O)CC[C@]2(CCN(c3ccc(C(C)C)cc3)C2=O)CC1` [Example 204, (5α,8α)-8-hydroxy-2-(4-isopropylphenyl)-8-propyl-2-aza-spiro[4.5]decan-1-one] was 0.02 µM; that for `CC(C)c1ccc(N2CC[C@]3(CC[C@@](O)(c4ccccc4)CC3)C2=O)cc1` [Example 205, (5α,8α)-8-hydroxy-2-(4-isopropylphenyl)-8-phenyl-2-aza-spiro[4.5]decan-1-one] was 0.01 µM.
The value for `CC(C)Oc1ccc(N2CC[C@]3(CC[C@@](O)(c4ccccc4)CC3)C2=O)cc1` [Example 206, (5α,8α)-8-hydroxy-2-(4-isopropoxyphenyl)-8-phenyl-2-aza-spiro[4.5]decan-1-one] was 0.01 µM; that for `CC(C)[C@]1(O)CC[C@]2(CCN(c3ccc(C(O)C(F)F)cc3)C2=O)CC1` (stereo partly drawn) [Example 207, (5α,8α)-2-(4-(2,2-difluoro-1-hydroxyethyl)phenyl)-8-hydroxy-8-isopropyl-2-aza-spiro[4.5]decan-1-one] was 0.09 µM; that for `CCC[C@]1(O)CC[C@]2(CCN(c3ccc(C(F)(F)F)cc3)C2=O)CC1` [Example 208, (5α,8α)-8-hydroxy-8-propyl-2-(4-(trifluoromethyl)phenyl)-2-aza-spiro[4.5]decan-1-one] was 0.03 µM.
For the compound `CC(C)[C@]1(O)CC[C@]2(CCN(c3ccc(C(F)(F)F)cc3)C2=O)CC1` [Example 209, (5α,8α)-8-hydroxy-8-isopropyl-2-(4-(trifluoromethyl)phenyl)-2-aza-spiro[4.5]decan-1-one], the IC50 was 0.03 µM.
The value for `COC[C@]1(O)CC[C@]2(CCN(c3ccc(OC(C)C)cc3)C2=O)CC1` [Example 210, (5α,8α)-8-hydroxy-2-(4-isopropoxyphenyl)-8-(methoxymethyl)-2-aza-spiro[4.5]decan-1-one] was 0.05 µM.

(Values after patent US8440710B2, “HSL inhibitors useful in the treatment of diabetes” (Hoffmann-La Roche Inc., priority 2009, dated 2013).)
